Assay results reported in US7087722B1, “Fibrin binding domain polypeptides and uses and methods of producing same” (Savient Pharmaceuticals, Inc., priority 1988, dated 2006).

Tests used:
[1] = biological target: T1, guinea-pig liver transglutaminase (Sigma) (UniProt P08587); experiment: Binding of 125I-r31 kD FBD to extracellular matrix (ECM) of endothelial cells in the presence of exogenous transglutaminase; assay type: biochemical; conditions: 0.3 μM 125I-r31 kD FBD; 3 mM CaCl2; 0.02 units/ml transglutaminase; 45 minutes
T1 construct: purchased Sigma; host or cells: guinea-pig liver
T1 sequence (P08587 2-690): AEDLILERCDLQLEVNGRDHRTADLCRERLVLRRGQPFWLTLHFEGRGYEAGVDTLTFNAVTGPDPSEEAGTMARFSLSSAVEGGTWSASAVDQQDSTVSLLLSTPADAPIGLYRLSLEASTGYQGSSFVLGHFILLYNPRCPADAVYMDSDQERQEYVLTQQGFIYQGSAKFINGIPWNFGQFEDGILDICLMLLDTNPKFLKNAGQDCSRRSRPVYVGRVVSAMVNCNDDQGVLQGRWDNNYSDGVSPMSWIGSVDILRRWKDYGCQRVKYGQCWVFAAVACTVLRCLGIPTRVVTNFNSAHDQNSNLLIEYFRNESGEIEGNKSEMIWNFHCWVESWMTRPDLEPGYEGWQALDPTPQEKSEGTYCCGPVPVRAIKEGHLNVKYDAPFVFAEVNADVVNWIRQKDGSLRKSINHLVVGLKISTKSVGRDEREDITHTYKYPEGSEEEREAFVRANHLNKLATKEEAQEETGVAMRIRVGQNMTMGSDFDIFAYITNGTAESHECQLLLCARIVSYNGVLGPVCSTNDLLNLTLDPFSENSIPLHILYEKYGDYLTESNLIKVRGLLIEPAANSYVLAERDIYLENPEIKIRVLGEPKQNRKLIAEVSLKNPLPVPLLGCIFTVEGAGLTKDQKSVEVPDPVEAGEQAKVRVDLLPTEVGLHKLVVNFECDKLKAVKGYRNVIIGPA
Procedure: FIG. 51. Binding of ^125I-r31 kD FBD to ECM in the presence of various constituents
0.3 μM of ^125I-r31 kD FBD was incubated with extracellular matrix of endothelial cells (ECM) as described by Eld r et al. (20) in a 37° C. CO2-incubator in the presence of saline, 3 mM CaCl2 and 0.02 units/ml of guinea-pig liver transglutaminase (TG) and other constituents as indicated in the figure. The control was done in the absence of transglutaminase.
The reactions were terminated after 45 minutes by washing five times with PBS. Plates were extracted with a solution of 0.5% SDS and aliquots of the extracted material were measured in a gamma counter.
The binding was now further characterized by examination of the binding of 0.3 μM ^125I-r31 kD FBD to ECM in the presence and absence of exogenous transglutaminase; additionally the binding in the presence of transglutaminase was examined in the presence of each of heparin, fibronectin or spermidine.

[2] = test system: clotting of citrated healthy human plasma by thrombin; experiment: Plasma Thrombin Time (TT), clotting of citrated healthy human plasma; assay type: biochemical; conditions: 1 mM spermidine; for "TT" Values (%): no addition: 100
Procedure: The effect of the r31 kD polypeptide on clotting of whole blood was measured using the clinical laboratory parameter defined as Thrombin-Time. In this reaction aliquots of 100 μl citrated healthy human plasma were mixed with 100 μl PBS and either the transglutaminase inhibitor spermidine, or with reduced-carboxyamidated p31 kD or reoxidized-refolded r31 kD. 200 μl thrombin solution was added to each aliquot while continuously mixing. The time from the addition of the thrombin to the formation of clot was measured, and is expressed as “TT” in seconds (Table B).

In the case of NCCCCNCCCN [spermidine], the “effect on binding of r31 kD FBD to ECM in the presence of transglutaminase” value [1] is reported as “inhibits the binding”, the “"TT" Values (\)” value ([2]; thrombin conc. 1.25 (μ/ml)) is reported as 105 and the “"TT" Values” ([2]; thrombin conc. 1.25 (μ/ml), no addition: 55.4) is reported as 114 s. The “"TT" Values (%)” value ([2]; thrombin conc. 1.25 (μ/ml)) was 205%, the “"TT" Values (\)” value ([2]; thrombin conc. 2.5 (μ/ml)) was 72 and the “"TT" Values” ([2]; thrombin conc. 2.5 (μ/ml), no addition: 25.5) was 44 s. The “"TT" Values (%)” value ([2]; thrombin conc. 2.5 (μ/ml)) was 172%.
